According to PubChem BioAssay AID1963962 (Molecular Pharmacology Branch, DTP, NCI, 2024):

Test system: 967376-340-R-J2-PDC multicell spheroid viability
Assay: Anticancer human tumor 967376-340-R-J2-PDC patient-derived colon adenocarcinoma cell line growth inhibition [PI3K]
Settings: for IC50: curve of first compound; for viability, T/C: stronger effect = lower value
How it was run: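 Targeted small molecules plus PI3K inhibitors, half-log dose series from Cmax (default top 10 microM), were applied to heterotypic spheroids of cancer cells with HUVEC and MSCs. Viability indicated growth inhibition.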

[1] = second compound 0.00316 µM, first compound 0.0316 µM
[2] = second compound 0.00316 µM, first compound 0.1 µM
[3] = second compound 0.00316 µM, first compound 0.316 µM
[4] = second compound 0.00316 µM, first compound 1 µM
[5] = second compound 0.00316 µM, first compound 3.16 µM
[6] = second compound 0.00316 µM, first compound 10 µM
[7] = second compound 0.01 µM, first compound 0.0316 µM
[8] = second compound 0.01 µM, first compound 0.1 µM
[9] = second compound 0.01 µM, first compound 0.316 µM
[10] = second compound 0.01 µM, first compound 1 µM
[11] = second compound 0.01 µM, first compound 3.16 µM
[12] = second compound 0.01 µM, first compound 10 µM
[13] = second compound 0.0316 µM, first compound 0.0316 µM
[14] = second compound 0.0316 µM, first compound 0.1 µM
[15] = second compound 0.0316 µM, first compound 0.316 µM
[16] = second compound 0.0316 µM, first compound 1 µM
[17] = second compound 0.0316 µM, first compound 3.16 µM
[18] = second compound 0.0316 µM, first compound 10 µM
[19] = second compound 0.1 µM, first compound 0.0316 µM
[20] = second compound 0.1 µM, first compound 0.1 µM
[21] = second compound 0.1 µM, first compound 0.316 µM
[22] = second compound 0.1 µM, first compound 1 µM
[23] = second compound 0.1 µM, first compound 3.16 µM
[24] = second compound 0.1 µM, first compound 10 µM
[25] = second compound 0.316 µM, first compound 0.0316 µM
[26] = second compound 0.316 µM, first compound 0.1 µM
[27] = second compound 0.316 µM, first compound 0.316 µM
[28] = second compound 0.316 µM, first compound 1 µM
[29] = second compound 0.316 µM, first compound 3.16 µM
[30] = second compound 0.316 µM, first compound 10 µM
[31] = second compound 1 µM, first compound 0.0316 µM
[32] = second compound 1 µM, first compound 0.1 µM
[33] = second compound 1 µM, first compound 0.316 µM
[34] = second compound 1 µM, first compound 1 µM
[35] = second compound 1 µM, first compound 3.16 µM
[36] = second compound 1 µM, first compound 10 µM
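Also: spheroids exposed to agents for 7 days before read-out.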
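For viability, T/C in this document: luminescence used as surrogate of cell viability.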

C#Cc1c(F)ccc2cc(O)cc(-c3ncc4c(N5CC6CCC(C5)N6)nc(OCC56CCCN5CC(F)C6)nc4c3F)c12 (stereo not drawn) + CC(Nc1ccc2c(c1)OCCn1cc(N3C(=O)OCC3C(F)F)nc1-2)C(N)=O
IC50 (second compound 0.00316 µM): > 10 µM
IC50 (second compound 0.01 µM): > 10 µM
IC50 (second compound 0.0316 µM): > 10 µM
IC50 (second compound 0.1 µM): > 10 µM
IC50 (second compound 0.316 µM): > 10 µM
IC50 (second compound 1 µM): 2.26 µM
viability, T/C [1]: 115%
viability, T/C [2]: 99.1%
viability, T/C [3]: 72.3%
viability, T/C [4]: 68.5%
viability, T/C [5]: 94.5%
viability, T/C [6]: 65.7%
viability, T/C [7]: 81.8%
viability, T/C [8]: 86%
viability, T/C [9]: 78.7%
viability, T/C [10]: 87.5%
viability, T/C [11]: 97.7%
viability, T/C [12]: 59.6%
viability, T/C [13]: 78.5%
viability, T/C [14]: 105%
viability, T/C [15]: 71.6%
viability, T/C [16]: 62.3%
viability, T/C [17]: 98.7%
viability, T/C [18]: 56.6%
viability, T/C [19]: 79.7%
viability, T/C [20]: 82%
viability, T/C [21]: 86.6%
viability, T/C [22]: 70.7%
viability, T/C [23]: 62%
viability, T/C [24]: 58.6%
viability, T/C [25]: 55.1%
viability, T/C [26]: 73.9%
viability, T/C [27]: 63.8%
viability, T/C [28]: 60.7%
viability, T/C [29]: 67.6%
viability, T/C [30]: 45.5%
viability, T/C [31]: 62.7%
viability, T/C [32]: 58.6%
viability, T/C [33]: 57.4%
viability, T/C [34]: 56.3%
viability, T/C [35]: 47.8%
viability, T/C [36]: 32.9%

CC(Cn1ccc(-c2ccc(C#N)c(Cl)c2)n1)NC(=O)c1cc(C(C)O)[nH]n1 (stereo not drawn) + CC(Nc1ccc2c(c1)OCCn1cc(N3C(=O)OCC3C(F)F)nc1-2)C(N)=O
IC50 (second compound 0.00316 µM): > 10 µM
IC50 (second compound 0.01 µM): > 10 µM
IC50 (second compound 0.0316 µM): > 10 µM
IC50 (second compound 0.1 µM): > 10 µM
IC50 (second compound 0.316 µM): > 10 µM
IC50 (second compound 1 µM): > 10 µM
viability, T/C [1]: 109%
viability, T/C [2]: 112%
viability, T/C [3]: 126%
viability, T/C [4]: 93.5%
viability, T/C [5]: 125%
viability, T/C [6]: 105%
viability, T/C [7]: 115%
viability, T/C [8]: 78.3%
viability, T/C [9]: 126%
viability, T/C [10]: 101%
viability, T/C [11]: 102%
viability, T/C [12]: 117%
viability, T/C [13]: 82.6%
viability, T/C [14]: 104%
viability, T/C [15]: 101%
viability, T/C [16]: 97.1%
viability, T/C [17]: 93.7%
viability, T/C [18]: 84.8%
viability, T/C [19]: 84.5%
viability, T/C [20]: 74.1%
viability, T/C [21]: 75%
viability, T/C [22]: 83.9%
viability, T/C [23]: 85.2%
viability, T/C [24]: 67.4%
viability, T/C [25]: 75.7%
viability, T/C [26]: 72.3%
viability, T/C [27]: 76.4%
viability, T/C [28]: 62.4%
viability, T/C [29]: 69.4%
viability, T/C [30]: 78.2%
viability, T/C [31]: 59.8%
viability, T/C [32]: 54%
viability, T/C [33]: 66.7%
viability, T/C [34]: 51%
viability, T/C [35]: 61.2%
viability, T/C [36]: 60.2%

CC1(C)CCC(Nc2ncc(C(F)(F)F)c(-c3c[nH]c4c(P(C)(C)=O)c(C#N)ccc34)n2)CN1 (stereo not drawn) + CC(Nc1ccc2c(c1)OCCn1cc(N3C(=O)OCC3C(F)F)nc1-2)C(N)=O
IC50 (second compound 0.00316 µM): 6.69 µM
IC50 (second compound 0.01 µM): > 10 µM
IC50 (second compound 0.0316 µM): 6.64 µM
IC50 (second compound 0.1 µM): 2.27 µM
IC50 (second compound 0.316 µM): 3.65 µM
IC50 (second compound 1 µM): 0.277 µM
viability, T/C [1]: 92.7%
viability, T/C [2]: 69.1%
viability, T/C [3]: 68%
viability, T/C [4]: 64.7%
viability, T/C [5]: 57.6%
viability, T/C [6]: 44.3%
viability, T/C [7]: 79%
viability, T/C [8]: 88.1%
viability, T/C [9]: 64.8%
viability, T/C [10]: 53.2%
viability, T/C [11]: 59.6%
viability, T/C [12]: 49%
viability, T/C [13]: 58.4%
viability, T/C [14]: 76.8%
viability, T/C [15]: 63.3%
viability, T/C [16]: 66.2%
viability, T/C [17]: 54.1%
viability, T/C [18]: 46.7%
viability, T/C [19]: 58.5%
viability, T/C [20]: 74.1%
viability, T/C [21]: 69.7%
viability, T/C [22]: 54%
viability, T/C [23]: 48.1%
viability, T/C [24]: 25.6%
viability, T/C [25]: 56.3%
viability, T/C [26]: 67.3%
viability, T/C [27]: 56.9%
viability, T/C [28]: 52.9%
viability, T/C [29]: 54.9%
viability, T/C [30]: 24.8%
viability, T/C [31]: 53.6%
viability, T/C [32]: 53.4%
viability, T/C [33]: 43.5%
viability, T/C [34]: 50.7%
viability, T/C [35]: 36.1%
viability, T/C [36]: 24.6%

Cn1cnc2c(F)c(Nc3ccc(Br)cc3Cl)c(C(=O)NOCCO)cc21 + CC(Nc1ncnc2nc[nH]c12)c1cc2cccc(Cl)c2c(=O)n1-c1ccccc1
IC50 (second compound 0.0316 µM): 1.46 µM
IC50 (second compound 0.1 µM): 2.11 µM
IC50 (second compound 0.316 µM): 1.92 µM
IC50 (second compound 1 µM): 1.33 µM
IC50 (second compound 3.16 µM): 1.34 µM
IC50 (second compound 10 µM): 0.666 µM
viability, T/C (second compound 0.0316 µM, first compound 0.00949 µM): 73.5%
viability, T/C (second compound 0.0316 µM, first compound 0.03 µM): 112%
viability, T/C (second compound 0.0316 µM, first compound 0.0949 µM): 95.4%
viability, T/C (second compound 0.0316 µM, first compound 0.3 µM): 75.5%
viability, T/C (second compound 0.0316 µM, first compound 0.949 µM): 61.4%
viability, T/C (second compound 0.0316 µM, first compound 3 µM): 34.5%
viability, T/C (second compound 0.1 µM, first compound 0.00949 µM): 106%
viability, T/C (second compound 0.1 µM, first compound 0.03 µM): 107%
viability, T/C (second compound 0.1 µM, first compound 0.0949 µM): 87.5%
viability, T/C (second compound 0.1 µM, first compound 0.3 µM): 102%
viability, T/C (second compound 0.1 µM, first compound 0.949 µM): 74.7%
viability, T/C (second compound 0.1 µM, first compound 3 µM): 38.5%
viability, T/C (second compound 0.316 µM, first compound 0.00949 µM): 78.8%
viability, T/C (second compound 0.316 µM, first compound 0.03 µM): 104%
viability, T/C (second compound 0.316 µM, first compound 0.0949 µM): 97.9%
viability, T/C (second compound 0.316 µM, first compound 0.3 µM): 78.3%
viability, T/C (second compound 0.316 µM, first compound 0.949 µM): 61.9%
viability, T/C (second compound 0.316 µM, first compound 3 µM): 43%
viability, T/C (second compound 1 µM, first compound 0.00949 µM): 97.1%
viability, T/C (second compound 1 µM, first compound 0.03 µM): 97.4%
viability, T/C (second compound 1 µM, first compound 0.0949 µM): 90.1%
viability, T/C (second compound 1 µM, first compound 0.3 µM): 78.1%
viability, T/C (second compound 1 µM, first compound 0.949 µM): 64.5%
viability, T/C (second compound 1 µM, first compound 3 µM): 21.1%
viability, T/C (second compound 3.16 µM, first compound 0.00949 µM): 82%
viability, T/C (second compound 3.16 µM, first compound 0.03 µM): 83.6%
viability, T/C (second compound 3.16 µM, first compound 0.0949 µM): 70.7%
viability, T/C (second compound 3.16 µM, first compound 0.3 µM): 97%
viability, T/C (second compound 3.16 µM, first compound 0.949 µM): 61.6%
viability, T/C (second compound 3.16 µM, first compound 3 µM): 22.6%
viability, T/C (second compound 10 µM, first compound 0.00949 µM): 78.4%
viability, T/C (second compound 10 µM, first compound 0.03 µM): 64.3%
viability, T/C (second compound 10 µM, first compound 0.0949 µM): 69.2%
viability, T/C (second compound 10 µM, first compound 0.3 µM): 66%
viability, T/C (second compound 10 µM, first compound 0.949 µM): 43.1%
viability, T/C (second compound 10 µM, first compound 3 µM): 13.7%
